{"source": "patent US20250223268A1", "about": "“4-Methylsulfonylbenzamide Compound, Preparation Method, Herbicidal Composition And Use” (Jiangsu Flag Chemical Industry Co., Ltd., priority 2022, published 2025)", "type_in_all_cases": "in vivo", "key": {"[1]": {"tested_on": "Digitaria sanguinalis", "assay": "Greenhouse herbicidal activity and crop safety comparison (Test Example 2)", "outline": "(§1)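 Fresh weight inhibition, banded into grades A to E (E <20%), was rated 14-21 days after foliar spraying of 3-6 leaf plants, or 14-30 days after a soil spray applied 24 h post-sowing.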"}, "[2]": {"tested_on": "Echinochloa crusgalli", "assay": "Greenhouse herbicidal activity and crop safety comparison (Test Example 2)", "outline": "as §1"}, "[3]": {"tested_on": "Oryza sativa subsp. indica", "assay": "Greenhouse herbicidal activity and crop safety comparison (Test Example 2)", "outline": "as §1"}, "[4]": {"tested_on": "Oryza sativa subsp. japonica", "assay": "Greenhouse herbicidal activity and crop safety comparison (Test Example 2)", "outline": "as §1"}, "[5]": {"tested_on": "Zea mays", "assay": "Greenhouse herbicidal activity and crop safety comparison (Test Example 2)", "outline": "as §1"}, "[6]": {"tested_on": "Cyperus iria", "assay": "Greenhouse herbicidal activity assay, post-emergence", "details": "Post-emergence test, rate 150 g a.i./hm^2, grade by fresh weight inhibition rate", "outline": "(§2)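 Weeds and crops grown in pots of nutrient soil in a growth chamber to the 3-6 leaf stage, then foliar-sprayed and air-dried. Fresh weight inhibition scored 14-21 days after treatment and graded A (≥80%) through E (<20%).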"}, "[7]": {"tested_on": "Digitaria sanguinalis", "assay": "Greenhouse herbicidal activity assay, post-emergence", "details": "Post-emergence test, rate 150 g a.i./hm^2, grade by fresh weight inhibition rate", "outline": "as §2"}, "[8]": {"tested_on": "Echinochloa crusgalli", "assay": "Greenhouse herbicidal activity assay, post-emergence", "details": "Post-emergence test, rate 150 g a.i./hm^2, grade by fresh weight inhibition rate", "outline": "as §2"}, "[9]": {"tested_on": "Eclipta prostrata", "assay": "Greenhouse herbicidal activity assay, post-emergence", "details": "Post-emergence test, rate 150 g a.i./hm^2, grade by fresh weight inhibition rate", "outline": "as §2"}, "[10]": {"tested_on": "Leptochloa chinensis", "assay": "Greenhouse herbicidal activity assay, post-emergence", "details": "Post-emergence test, rate 150 g a.i./hm^2, grade by fresh weight inhibition rate", "outline": "as §2"}}, "data": [{"molecule": "CC(C)S(=O)(=O)c1c(S(C)(=O)=O)ccc(C(=O)Nc2ncnn2C)c1Cl", "note": "[Compound 2-10, 2-chloro-3-(isopropylsulfonyl)-N-(1-methyl-H-1,2,4-triazol-5-yl)-4-(methylsulfonyl)benzamide]", "values": [{"measurement": "inhibition at 75 g/ha", "setting": "[1]; Digitaria sanguinalis, Rate 75 g/ha, read-out: Digitaria sanguinalis, control efficacy grading (fresh weight inhibition rate)", "value": "80 to 100", "unit": "%"}, {"measurement": "inhibition at 150 g/ha", "setting": "[1]; Digitaria sanguinalis, Rate 150 g/ha, read-out: Digitaria sanguinalis, control efficacy grading (fresh weight inhibition rate)", "value": "80 to 100", "unit": "%"}, {"measurement": "inhibition at 75 g/ha", "setting": "[2]; Echinochloa crus-galli, Rate 75 g/ha, read-out: Echinochloa crusgalli, control efficacy grading (fresh weight inhibition rate)", "value": "80 to 100", "unit": "%"}, {"measurement": "inhibition at 150 g/ha", "setting": "[2]; Echinochloa crus-galli, Rate 150 g/ha, read-out: Echinochloa crusgalli, control efficacy grading (fresh weight inhibition rate)", "value": "80 to 100", "unit": "%"}, {"measurement": "Oryza sativa subsp. indica, grading of fresh weight inhibition rate (crop safety)", "setting": "[3]; Rate 75 g/ha", "value": "E (Fresh weight inhibition rate<20%)"}, {"measurement": "Oryza sativa subsp. indica, grading of fresh weight inhibition rate (crop safety)", "setting": "[3]; Rate 150 g/ha", "value": "E (Fresh weight inhibition rate<20%)"}, {"measurement": "Oryza sativa subsp. japonica, grading of fresh weight inhibition rate (crop safety)", "setting": "[4]; Rate 75 g/ha", "value": "E (Fresh weight inhibition rate<20%)"}, {"measurement": "Oryza sativa subsp. japonica, grading of fresh weight inhibition rate (crop safety)", "setting": "[4]; Rate 150 g/ha", "value": "E (Fresh weight inhibition rate<20%)"}, {"measurement": "Zea mays, grading of fresh weight inhibition rate (crop safety)", "setting": "[5]; Rate 75 g/ha", "value": "E (Fresh weight inhibition rate<20%)"}, {"measurement": "Zea mays, grading of fresh weight inhibition rate (crop safety)", "setting": "[5]; Rate 150 g/ha", "value": "E (Fresh weight inhibition rate<20%)"}, {"measurement": "pest or weed control at 150 g/ha", "setting": "[6]; Cyperus iria, read-out: Control efficacy grade, Cyperus iria", "value": "80 to 100", "unit": "%"}, {"measurement": "pest or weed control at 150 g/ha", "setting": "[7]; Digitaria sanguinalis, read-out: Control efficacy grade, Digitaria sanguinalis", "value": "80 to 100", "unit": "%"}, {"measurement": "pest or weed control at 150 g/ha", "setting": "[8]; Echinochloa crus-galli, read-out: Control efficacy grade, Echinochloa crusgalli", "value": "80 to 100", "unit": "%"}, {"measurement": "pest or weed control at 150 g/ha", "setting": "[9]; Eclipta prostrata, read-out: Control efficacy grade, Eclipta prostrata", "value": "80 to 100", "unit": "%"}, {"measurement": "pest or weed control at 150 g/ha", "setting": "[10]; Dinebra chinensis, read-out: Control efficacy grade, Leptochloa chinensis", "value": "80 to 100", "unit": "%"}]}, {"molecule": "Cn1ncnc1NC(=O)c1ccc(S(C)(=O)=O)c(S(=O)(=O)C2CCCC2)c1Cl", "note": "[Compound 2-46]", "values": [{"measurement": "Digitaria sanguinalis, control efficacy grading (fresh weight inhibition rate)", "setting": "[1]; Rate 150 g/ha", "value": "A (Fresh weight inhibition rate≥80% to 100%)"}, {"measurement": "Echinochloa crusgalli, control efficacy grading (fresh weight inhibition rate)", "setting": "[2]; Rate 75 g/ha", "value": "A (Fresh weight inhibition rate≥80% to 100%)"}, {"measurement": "Echinochloa crusgalli, control efficacy grading (fresh weight inhibition rate)", "setting": "[2]; Rate 150 g/ha", "value": "A (Fresh weight inhibition rate≥80% to 100%)"}, {"measurement": "Oryza sativa subsp. indica, grading of fresh weight inhibition rate (crop safety)", "setting": "[3]; Rate 75 g/ha", "value": "E (Fresh weight inhibition rate<20%)"}, {"measurement": "Oryza sativa subsp. indica, grading of fresh weight inhibition rate (crop safety)", "setting": "[3]; Rate 150 g/ha", "value": "E (Fresh weight inhibition rate<20%)"}, {"measurement": "Oryza sativa subsp. japonica, grading of fresh weight inhibition rate (crop safety)", "setting": "[4]; Rate 75 g/ha", "value": "E (Fresh weight inhibition rate<20%)"}, {"measurement": "Oryza sativa subsp. japonica, grading of fresh weight inhibition rate (crop safety)", "setting": "[4]; Rate 150 g/ha", "value": "E (Fresh weight inhibition rate<20%)"}, {"measurement": "Zea mays, grading of fresh weight inhibition rate (crop safety)", "setting": "[5]; Rate 75 g/ha", "value": "E (Fresh weight inhibition rate<20%)"}, {"measurement": "Zea mays, grading of fresh weight inhibition rate (crop safety)", "setting": "[5]; Rate 150 g/ha", "value": "E (Fresh weight inhibition rate<20%)"}, {"measurement": "Control efficacy grade, Cyperus iria", "setting": "[6]", "value": "A (Fresh weight inhibition rate≥80% to 100%)"}, {"measurement": "Control efficacy grade, Digitaria sanguinalis", "setting": "[7]", "value": "A (Fresh weight inhibition rate≥80% to 100%)"}, {"measurement": "Control efficacy grade, Echinochloa crusgalli", "setting": "[8]", "value": "A (Fresh weight inhibition rate≥80% to 100%)"}, {"measurement": "Control efficacy grade, Eclipta prostrata", "setting": "[9]", "value": "A (Fresh weight inhibition rate≥80% to 100%)"}, {"measurement": "Control efficacy grade, Leptochloa chinensis", "setting": "[10]", "value": "A (Fresh weight inhibition rate≥80% to 100%)"}]}]}
